Source: ChEMBL document CHEMBL4706484, “Apigenin-rivastigmine hybrids as multi-target-directed liagnds for the treatment of Alzheimer's disease” (Eur J Med Chem, 2020)
The source made the active and inactive calls. The rule behind the calls is not given here.

Assays:
[1] = Metal chelating activity assessed as Zn2+-compound complex formation at 37.5 uM in presence of 37.5 uM ZnCl2 by UV-Vis spectrophotometric analysis
Danio rerio [2] = species on record: Danio rerio; assay: Antialzheimer activity against 3 dpf zebrafish model of AlCl3-induced AD assessed as increase in motility distance; type: functional, organism-based
[3] = Drug metabolism in rat intestine assessed as metabolite formation by UPLC-MS/MS analysis; type: ADME, tissue-based
Acetylcholinesterase = Acetylcholinesterase (Homo sapiens, UniProt P22303); assay: Pseudo-irreversible inhibition of human erythrocytes AChE assessed as enzyme recovery activity at 0.1 times IC50 measured at 120 mins using diluted compound relative to control; type: tissue-based; set-up: scale not given: the % may be the effect or the level left; settings: Erythrocyte
Acetylcholinesterase, sequence (P22303 whole entry): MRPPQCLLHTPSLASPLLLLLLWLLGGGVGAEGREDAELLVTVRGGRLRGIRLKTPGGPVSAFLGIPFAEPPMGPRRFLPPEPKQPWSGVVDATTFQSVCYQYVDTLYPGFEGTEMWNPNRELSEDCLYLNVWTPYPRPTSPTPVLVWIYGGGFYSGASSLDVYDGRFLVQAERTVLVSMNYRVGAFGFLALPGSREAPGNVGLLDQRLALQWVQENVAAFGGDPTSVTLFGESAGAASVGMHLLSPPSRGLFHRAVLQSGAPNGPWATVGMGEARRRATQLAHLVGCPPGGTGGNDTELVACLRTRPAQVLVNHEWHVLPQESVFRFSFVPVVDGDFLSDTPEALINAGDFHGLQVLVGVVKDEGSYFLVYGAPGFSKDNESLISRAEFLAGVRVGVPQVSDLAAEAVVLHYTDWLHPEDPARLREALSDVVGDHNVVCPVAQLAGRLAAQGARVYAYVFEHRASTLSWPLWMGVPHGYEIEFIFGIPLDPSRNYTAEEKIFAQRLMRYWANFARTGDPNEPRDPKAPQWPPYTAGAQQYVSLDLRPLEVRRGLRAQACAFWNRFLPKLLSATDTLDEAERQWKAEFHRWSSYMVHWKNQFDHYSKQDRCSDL

[4] = Acute toxicity in 2 dpf zebrafish assessed as death at 1.25 to 20 ug/ml measured after 3 days; set-up: species or system Danio rerio; settings: in vivo, 72 h, dose 1.25-20 µg/ml, time 3 day
Danio rerio [5] = species on record: Danio rerio; assay: Protection against amyloid beta (1 to 40 residues)-induced vascular injury in transgenic zebrafish assessed as vascular injury rate at 12.5 ug/ml (reference value: 73.3 %); type: functional; settings: dose 12.5 µg/ml
Danio rerio [6] = species on record: Danio rerio; assay: Antialzheimer activity against 3 dpf zebrafish model of AlCl3-induced AD assessed as efficacy on motility distance at 1.4 ug/ml relative to control; type: functional; settings: dose 1.4 µg/ml
Mus musculus [7] = assay: Antialzheimer activity in scopolamine-induced Kunming mouse model of memory impairment assessed as total reads in brain hippocampus at 10 mg/kg by illumina sequencing method (reference value: 100 %); type: functional
[8] = Toxicity in 3 dpf zebrafish model of AlCl3-induced AD assessed as minimum toxic concentration; set-up: species or system Danio rerio; settings: in vivo
[9] = Acute toxicity in 2 dpf zebrafish assessed as yolk sac absorption delay at 1.39 ug/ml measured after 3 days; set-up: species or system Danio rerio; settings: in vivo, 72 h, dose 1.39 µg/ml, time 3 day
Danio rerio [10] = species on record: Danio rerio; assay: Protection against amyloid beta (1 to 40 residues)-induced vascular injury in transgenic zebrafish assessed as vascular injury rate at 1.4 ug/ml (reference value: 73.3 %); type: functional; settings: dose 1.4 µg/ml
Danio rerio [11] = species on record: Danio rerio; assay: Antialzheimer activity against 3 dpf zebrafish model of AlCl3-induced AD assessed as motility by measuring change in speed at 12.5 ug/ml (reference value: 1.05 mm/s); type: functional; settings: dose 12.5 µg/ml
[12] = Acute toxicity in Kunming mouse assessed as dispirited at 2000 mg/kg; type: organism-based; settings: in vivo
Danio rerio [13] = species on record: Danio rerio; assay: Antialzheimer activity against 3 dpf zebrafish model of AlCl3-induced AD assessed as efficacy on motility distance at 4.2 ug/ml relative to control; type: functional; settings: dose 4.2 µg/ml
Danio rerio [14] = species on record: Danio rerio; assay: Antialzheimer activity against 3 dpf zebrafish model of AlCl3-induced AD assessed as change in motility distance at 1.4 ug/ml (reference value: 5204 mm); type: functional; settings: dose 1.4 µg/ml
[15] = Drug metabolism in rat liver microsomes assessed as metabolite formation by UPLC-MS/MS analysis; type: ADME, Microsome
PC-12 = assay: Neuroprotective activity against H2O2-induced cell injury in rat PC-12 cells assessed as cell viability at 5 uM preincubated for 2 hrs followed by H2O2 addition and measured after 24 hrs by MTT assay (reference value: 53.8 %); type: functional; settings: time 26 hrs, read-out: Activity
[16] = Acute toxicity in 2 dpf zebrafish assessed as degenerating trunk muscle within somite at 1.39 to 12.5 ug/ml measured after 3 days; type: tissue-based, Danio rerio; settings: in vivo, 72 h, dose 1.39-12.5 µg/ml, time 3 day
[17] = Acute toxicity in 2 dpf zebrafish assessed as kidney edema at 1.39 to 12.5 ug/ml measured after 3 days; set-up: species or system Danio rerio; settings: in vivo, 72 h, dose 1.39-12.5 µg/ml, time 3 day
Butyrylcholinesterase = Butyrylcholinesterase (Rattus norvegicus, UniProt Q9JKC1); assay: Inhibition of rat serum BChE using acetylthiocholine iodide as substrate measured after 15 mins by Ellman's method; type: cell-free
Butyrylcholinesterase, sequence (Q9JKC1 whole entry): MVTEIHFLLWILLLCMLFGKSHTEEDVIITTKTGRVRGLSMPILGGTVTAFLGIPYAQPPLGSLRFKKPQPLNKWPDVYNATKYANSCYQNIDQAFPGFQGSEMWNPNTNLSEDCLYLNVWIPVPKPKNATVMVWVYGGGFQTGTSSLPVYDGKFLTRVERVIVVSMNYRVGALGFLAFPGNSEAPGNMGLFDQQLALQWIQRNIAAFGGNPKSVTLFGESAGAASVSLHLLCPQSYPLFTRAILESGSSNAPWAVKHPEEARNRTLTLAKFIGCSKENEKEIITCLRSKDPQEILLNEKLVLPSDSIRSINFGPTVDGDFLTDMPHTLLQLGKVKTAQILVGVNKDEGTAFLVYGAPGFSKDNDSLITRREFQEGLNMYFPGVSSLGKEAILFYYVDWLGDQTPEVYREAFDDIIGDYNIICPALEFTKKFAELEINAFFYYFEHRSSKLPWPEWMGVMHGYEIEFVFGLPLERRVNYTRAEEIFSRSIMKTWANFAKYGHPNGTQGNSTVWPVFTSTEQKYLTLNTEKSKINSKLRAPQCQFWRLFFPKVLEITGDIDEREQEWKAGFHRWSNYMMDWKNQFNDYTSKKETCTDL

Danio rerio [18] = species on record: Danio rerio; assay: Antialzheimer activity against 3 dpf zebrafish model of AlCl3-induced AD assessed as motility by measuring efficacy on speed change at 1.4 ug/ml relative to control; type: functional; settings: dose 1.4 µg/ml
[19] = Cytotoxicity against human L02 cells assessed as cell viability at 50 uM measured after 72 hrs by MTT assay relative to control; type: cell-based; settings: read-out: Activity
Cholinesterase = Cholinesterase (Homo sapiens, UniProt P06276); assay: Pseudo-irreversible inhibition of human serum BChE assessed as enzyme recovery activity at 0.1 times IC50 using diluted compound relative to control; type: cell-free; set-up: scale not given: the % may be the effect or the level left
Cholinesterase, sequence (P06276 whole entry): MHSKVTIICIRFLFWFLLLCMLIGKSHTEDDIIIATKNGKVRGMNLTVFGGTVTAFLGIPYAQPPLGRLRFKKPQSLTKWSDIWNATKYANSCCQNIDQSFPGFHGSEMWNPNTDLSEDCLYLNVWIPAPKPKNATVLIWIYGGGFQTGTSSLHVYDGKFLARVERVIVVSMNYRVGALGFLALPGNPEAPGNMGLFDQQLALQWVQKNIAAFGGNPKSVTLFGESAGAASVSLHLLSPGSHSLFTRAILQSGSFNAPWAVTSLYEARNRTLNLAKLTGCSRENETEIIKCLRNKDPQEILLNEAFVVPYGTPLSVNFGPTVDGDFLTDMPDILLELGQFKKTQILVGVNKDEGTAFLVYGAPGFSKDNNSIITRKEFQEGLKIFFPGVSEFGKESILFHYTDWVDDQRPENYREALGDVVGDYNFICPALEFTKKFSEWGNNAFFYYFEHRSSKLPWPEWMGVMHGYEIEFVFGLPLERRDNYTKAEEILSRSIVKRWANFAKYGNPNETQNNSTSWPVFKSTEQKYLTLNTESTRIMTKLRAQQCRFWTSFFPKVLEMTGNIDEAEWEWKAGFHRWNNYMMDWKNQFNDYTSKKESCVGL

[20] = Cytotoxicity against human L02 cells assessed as cell viability at 25 uM measured after 72 hrs by MTT assay relative to control; type: cell-based; settings: read-out: Activity
[21] = Acute toxicity in 2 dpf zebrafish assessed as yolk sac absorption delay at 12.5 ug/ml measured after 3 days relative to control; set-up: species or system Danio rerio; settings: in vivo, 72 h, at 12.5 µg/mL, time 3 day
[22] = Acute toxicity in 2 dpf zebrafish assessed as abnormal trunk at 1.39 to 12.5 ug/ml measured after 3 days; set-up: species or system Danio rerio; settings: in vivo, 72 h, dose 1.39-12.5 µg/ml, time 3 day
[23] = Cytotoxicity against human L02 cells assessed as cell viability at 12.5 uM measured after 72 hrs by MTT assay relative to control; type: cell-based; settings: read-out: Activity
Mus musculus [24] = assay: Reversal of scopolamine-induced Kunming mouse model of memory impairment assessed as spontaneous alteration at 10 mg/kg by Y-maze test (reference value: 41.6 %); type: functional
[25] = biological target: Amyloid-beta precursor protein (Homo sapiens) (UniProt P05067); assay: Disaggregation of self-induced amyloid beta (1 to 42) (unknown origin) preformed fibrils at 25 uM measured after 48 hrs by TEM analysis
Amyloid-beta precursor protein (Homo sapiens), sequence (P05067 whole entry): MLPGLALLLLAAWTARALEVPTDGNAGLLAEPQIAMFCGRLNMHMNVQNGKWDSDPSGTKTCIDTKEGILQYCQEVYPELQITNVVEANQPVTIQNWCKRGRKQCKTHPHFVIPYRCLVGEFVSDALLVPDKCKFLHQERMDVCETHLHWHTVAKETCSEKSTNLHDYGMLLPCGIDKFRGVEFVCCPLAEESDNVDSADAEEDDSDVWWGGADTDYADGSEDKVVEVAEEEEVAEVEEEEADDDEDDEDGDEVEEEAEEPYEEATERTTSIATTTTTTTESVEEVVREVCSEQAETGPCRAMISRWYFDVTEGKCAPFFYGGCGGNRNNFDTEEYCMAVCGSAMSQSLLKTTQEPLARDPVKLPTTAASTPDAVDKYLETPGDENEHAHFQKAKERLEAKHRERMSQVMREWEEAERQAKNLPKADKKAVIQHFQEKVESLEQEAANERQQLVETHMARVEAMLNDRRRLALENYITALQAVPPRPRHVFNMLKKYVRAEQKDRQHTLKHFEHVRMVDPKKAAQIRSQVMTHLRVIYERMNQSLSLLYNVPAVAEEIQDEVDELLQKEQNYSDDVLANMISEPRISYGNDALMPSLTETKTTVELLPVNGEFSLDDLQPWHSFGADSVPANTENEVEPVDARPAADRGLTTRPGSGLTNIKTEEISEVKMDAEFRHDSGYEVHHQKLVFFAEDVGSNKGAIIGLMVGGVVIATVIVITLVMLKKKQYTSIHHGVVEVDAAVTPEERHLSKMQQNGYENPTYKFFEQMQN

[26] = Cytotoxicity against human L02 cells assessed as cell viability at 6.25 uM measured after 72 hrs by MTT assay relative to control; type: cell-based; settings: read-out: Activity

CCN(C)C(=O)Oc1ccc(-c2cc(=O)c3c(O)cc(OC(=O)N(C)CC)cc3o2)cc1
Activity [1]: inactive
Activity (Danio rerio [2]): Dose-dependent effect
Drug metabolism [3]: Metabolite_Detected
Activity (Acetylcholinesterase): 83.6%
Activity [4]: Non-Toxic
Activity (Danio rerio [5]): 27%
Efficacy (Danio rerio [6]): 59%
Activity (Mus musculus [7]): 100%
MTC [8]: 12.5 µg/mL
Activity [9]: Non-Toxic
Activity (Danio rerio [10]): 60%
Activity (Danio rerio [11]): 2.17 millimeter/sec
Activity [12]: Toxic
Efficacy (Danio rerio [13]): 65%
Activity (Danio rerio [14]): 6432 mm
Drug metabolism [15]: Metabolite_Detected
viability at 5 µM (PC-12): 68.6%
Activity [16]: Non-Toxic
Activity [17]: Non-Toxic
IC50 (Butyrylcholinesterase): 12.1 µM
Efficacy (Danio rerio [18]): 58%
viability at 72 h, 50 µM [19]: 59.7%
Activity (Cholinesterase): 44.8%
viability at 72 h, 25 µM [20]: 83.9%
Activity [21]: 93.3%
Activity [22]: Non-Toxic
viability at 72 h, 12.5 µM [23]: 95.6%
Activity (Mus musculus [24]): 63.4%
Activity [25]: Active
viability at 72 h, 6.25 µM [26]: 99%
